Values of other authors in patent publication US20100221326A1, “PHARMACEUTICAL COMPOSITIONS FOR ORAL USE FOR TREATING PATIENTS AFFECTED BY OBESITY” (MADER S.R.L., priority 2007, published 2010).

Settings: raw material

For `CCCCCCCCCCC[C@@H](C[C@@H]1OC(=O)[C@H]1CCCCCC)OC(=O)[C@H](CC(C)C)NC=O` [Orlistat], the “degradation of the active principle” value (25° C., 65% RH, after 7 days' storage) is given as 15% and the degradation (40° C., RH 75%) is given as “greater than 40%”.
